Reference: PMC2654097, “Orally Available Selective Melanocortin-4 Receptor Antagonists Stimulate Food Intake and Reduce Cancer-Induced Cachexia in Mice” (PLoS ONE, 2009)
Where two headings read alike, the source gives them in different places. Ends that are not written are not given here.

Key:
[1] = system: animals implanted with a colorectal tumor; design: method as in PMID 15027849; conditions: subcutaneous administration; cited from earlier work
[2] = system: animals implanted with Lewis lung carcinoma; conditions: subcutaneous administration; cited from earlier work
MC-4 receptor [3] = biological target: MC-4 receptor; design: method as in earlier work; conditions: function; cited from earlier work
MC-5 = system: MC-5; design: method as in earlier work; conditions: MC-4 vs. MC-5; cited from earlier work
MC-3 = system: MC-3; design: method as in earlier work; conditions: MC-4 vs. MC-3; cited from earlier work
[4] = Brain and plasma concentrations in vivo; conditions: 60 mg/kg p.o., CD-1 mice; for Brain AUC / Plasma AUC: 0-6 hr; for Brain/plasma ratio: calculated from AUC
Protocol: Twelve weeks old male CD-1 (Hilltop Lab Animals, PA, USA) mice were dosed by gavage with either SNT207707 or SNT207858 at 60 mg/kg (n = 9 per compound). At 1, 3, and 6 hrs post-dose, 3 mice from each compound group were euthanized with CO2. Blood was collected by cardiac puncture, plasma was isolated immediately and then kept on dry ice until analysis. Brains were removed, rinsed with saline solution and stored at −80°C until analysis. Levels of the compound were determined by HPLC followed by mass spectrometry (MS/MS). Areas under the curve (AUC) of plasma and brain levels were computed from measured levels at 1, 3 and 6 hrs post-dose. Brain/plasma ratios were then calculated based on the AUCs. To assess the integrity of the blood-brain-barrier all animals were co-dosed with 10 mg/kg Atenolol.

MC-4 receptor [5] = biological target: MC-4 receptor; design: method as in earlier work; conditions: binding; read-out: IC50 (binding) / affinity on the MC-4 receptor; cited from earlier work
healthy mice = experiment: Light phase food intake; format: in vivo, NMRI mice; conditions: for effect on food intake, single dose comparison / effect on food intake: 4 hrs; for effect on food intake, single dose comparison: p<0.01 vs vehicle; for amount of food taken relative to vehicle control group: p.o., four hour post-treatment observation period; for effect on food intake: single oral treatment by gavage, dose range; for effect on food intake / amount of food taken relative to vehicle treated controls: light phase; for amount of food taken relative to vehicle treated controls: single s.c. injection 20 mg/kg, 4 hrs observation, p<0.01
Protocol: Six weeks old female NMRI mice (RCC Ltd.; Füllinsdorf, CH) were randomly assigned to the various experimental groups and the vehicle controls. They were housed in groups of 3 mice per cage. After at least one week of acclimatization in the experimental room, each animal's weight was determined and compound or vehicle was administered at appropriate concentrations 5 hrs after lights on. Then, food consumption of each cage group was recorded by weighing of the food hopper over a period of 4 hrs. Food intake was then determined as the difference in food hopper weight at the beginning and end of the 4 hrs following administration of the compound or the vehicle. Since the amount of food taken over 4 hrs by single animals was close to the limit of detection, we decided to rely on mean food amounts taken per cage (i.e., per 3 mice), whereby each treatment group consisted of n = 6 cages. The measured values from each cage were normalized to 100 g body weight (BW). Previous experiments indicated an excellent correlation between food intake and reduction of food weight.

C26 tumor bearing mice = experiment: C26 adenocarcinoma-induced cachexia model; format: in vivo, BALB/c mice; conditions: for tumor induced weight loss: 30 mg/kg p.o. once daily starting the day after tumor implantation; for body composition (lean body mass and fat mass) / tumor weight / mice that did not show cachexia (loss of more than 5% of body weight): 30 mg/kg p.o. once daily; for body composition (lean body mass and fat mass): day 0 vs day 15, MRI relaxometry; for tumor weight: end of experiment, mean±SEM, not different from Vehicle+Tumor controls; for mice that did not show cachexia (loss of more than 5% of body weight): n = 9, Vehicle+Tumor controls 2 of 9 and 3 of 9
Protocol: Six week old male BALB/c mice (Harlan, The Netherlands) were used. The animals were single housed, and after a one week adaption period randomly assigned to the experimental or control groups. For the tumor implantation the mice were anaesthetized with 200 µl of ketamine/xylazine. Approximately 1×10^6 C26 cells suspended in phosphate buffered saline were then implanted unilaterally in the flank of the mice by subcutaneous injection. The non-tumor controls underwent the same procedure but received PBS injection only (n = 9 per group). Starting on the first day after tumor implantation, compounds or vehicle were administered orally in 5 ml/kg 1–2 hrs before the onset of the dark phase. Food intake and body weight were recorded daily. Lean and fat mass of each animal were determined by MRI relaxometry (EchoMRI-500, Echo Medical Systems, Houston, TX, USA) prior to tumor inoculation (day 0) and at the end of the experiment after removal of the tumor (typically day 15).

[6] = system: models of cancer-induced anorexia; design: method as in PMID 17584133, PMID 15800806; conditions: central administration; cited from earlier work

Brain AUC [4] [µM·h]	Plasma AUC [4] [µM·h]	Brain/plasma ratio [4]	Plasma peak ([4]; levels at 1, 3, 6 hrs) [nM]	Compound	IC50 (MC-4 receptor [3]) [nM]	selectivity vs. MC-5 (MC-5)	selectivity vs. MC-3 (MC-3)	IC50 (MC-4 receptor [5]) [nM]	effect on food intake, single dose comparison (healthy mice; p.o. 120 mg/kg)	amount of food taken relative to vehicle control group (healthy mice)	effect on food intake (healthy mice)	amount of food taken relative to vehicle treated controls (healthy mice)	tumor induced weight loss (C26 tumor bearing mice)	body composition (lean body mass and fat mass) (C26 tumor bearing mice)	tumor weight (C26 tumor bearing mice) [g]	mice that did not show cachexia (loss of more than 5% of body weight) (C26 tumor bearing mice)	food intake [6]	further results
				COc1ccc(Br)cc1CCc1c(F)cccc1C1=NCCN1 [ML00253764, 2-[2-[2-(5-bromo-2-methoxyphenyl)-ethyl]-3-fluorophenyl]-4,5-dihydro-1H-imidazole]														cachexia [1]: efficacious in reducing cachexia; cachexia [2]: efficacious in reducing cachexia
2.307	6.373	0.36	1960	CC(C)CCN(CCC(C)C)C(=O)c1ccc2nc(-c3ccc(C#N)cc3)c(CCCN3CCCC3)n2c1.Cl [SNT207707]	5	more than 200 fold	more than 200 fold	8	statistically significant increases in food intake	roughly up to four times	dose-dependently increased the food intake	roughly 3 fold	significantly reduced the tumor induced weight loss	loss of lean body mass and loss of fat mass was reduced	1.03 ± 0.07	8 out of 9		Brain peak ([4]; levels at 1, 3, 6 hrs): ~580 nM
0.437	4.405	0.10	1520	CC[C@H](COc1cccnc1C1CCN(C(=O)[C@@H](Cc2ccc(Cl)cc2Cl)NC(=O)N2CCCC2)CC1)N1CCCC1 [SNT207858]	11	40 fold	170 fold	22	statistically significant increases in food intake	roughly up to four times	dose-dependently increased the food intake	roughly 3 fold	significantly reduced the tumor induced weight loss	loss of lean body mass and loss of fat mass was reduced	1.11 ± 0.09	6 out of 9		effect on food intake, single dose comparison (healthy mice; p.o. 60 mg/kg): statistically significant increases in food intake
				AgRP: agouti-related protein, the endogenous inverse agonist at the MC-4 receptor (SSRRCVRLHESCLGQQVPCCDPCATCYCRFFNAFCYCRKLGTAMNPCSRT; ends and bridges not checked; cysteine pairing not given here; UniProt O00253 83-132, looked up)													increased food intake	
				SHU-9119 [reference compound]													increased food intake	
